Experiments:
Type in all cases: cell-based
Conditions in all cases: 24 h incubation, visual reading
[1] = tested on: Streptococcus pneumoniae MDR ATCC 700677; assay: MIC assay, S. pneumoniae MDR ATCC 700677
How it was run: (§1)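 Overnight MHB cultures at 37° C were diluted 40-fold and grown 2-3 hrs to mid-log, then added at 5×10e5 CFU/mL to twofold compound dilutions (8 to 0.003 μg/ml). Plates were incubated 24 h at 37° C and MIC scored by eye.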

[2] = tested on: Staphylococcus aureus MRSA ATCC 43300; assay: MIC assay, S. aureus MRSA ATCC 43300
How it was run: as §1

[3] = tested on: Enterococcus faecium MDR Van A ATCC 51559; assay: MIC assay, E. faecium MDR Van A ATCC 51559
How it was run: as §1

| Structure (SMILES) | Minimum Inhibitory Concentration (MIC) S. pneumoniae ATCC 700677 [1] | Minimum Inhibitory Concentration (MIC) Staph. aureus ATCC43300 [2] | Minimum Inhibitory Concentration (MIC) E. faecium ATCC51559 [3] |
| --- | --- | --- | --- |
| CNC(=O)[C@H](CCCCNC(=O)[C@H]1NC(=O)[C@H]2NC(=O)[C@H](NC(=O)[C@@H]3NC(=O)[C@H](CC(N)=O)NC(=O)[C@H](NC(=O)[C@@H](CC(C)C)NC)[C@H](O)c4ccc(c(Cl)c4)Oc4cc3cc(c4O[C@@H]3O[C@H](CO)[C@@H](O)[C@H](O)[C@H]3O[C@H]3C[C@](C)(N)[C@H](O)[C@H](C)O3)Oc3ccc(cc3Cl)[C@H]2O)c2ccc(O)c(c2)-c2c(O)cc(O)cc21)NC(=O)[C@H](CCCCN)NC(=O)[C@H](CCCCN)NS(=O)(=O)c1ccc(C)cc1 [MCC_000764] | xx (xx = 1-4) | xx (xx = 1-4) | x (x = >4) |
| CCCCCOc1ccc(C(=O)NC(CCCCN)C(=O)NC(CCCCN)C(=O)NCCCNC(=O)C2NC(=O)C3NC(=O)C(NC(=O)C4NC(=O)C(CC(N)=O)NC(=O)C(NC(=O)C(CC(C)C)NC)C(O)c5ccc(c(Cl)c5)Oc5cc4cc(c5OC4OC(CO)C(O)C(O)C4OC4CC(C)(N)C(O)C(C)O4)Oc4ccc(cc4Cl)C3O)c3ccc(O)c(c3)-c3c(O)cc(O)cc32)cc1 (stereo not drawn) [MCC_005361] | xxxx (xxxx = 0.01-<0.1) | xxxx (xxxx = 0.01-<0.1) | xx (xx = 1-4) |
| CCCCCCCCCC(=O)N[C@@H](CCCCN)C(=O)N1CCC(CNC(=O)[C@H]2NC(=O)[C@H]3NC(=O)[C@H](NC(=O)[C@@H]4NC(=O)[C@H](CC(N)=O)NC(=O)[C@H](NC(=O)[C@@H](CC(C)C)NC)[C@H](O)c5ccc(c(Cl)c5)Oc5cc4cc(c5O[C@@H]4O[C@H](CO)[C@@H](O)[C@H](O)[C@H]4O[C@H]4C[C@](C)(N)[C@H](O)[C@H](C)O4)Oc4ccc(cc4Cl)[C@H]3O)c3ccc(O)c(c3)-c3c(O)cc(O)cc32)CC1 [MCC_005488] | xxxx (xxxx = 0.01-<0.1) | xxxx (xxxx = 0.01-<0.1) | xx (xx = 1-4) |
| CCCCCCC(CCCC)C(=O)NCCCCC(NC(=O)C(CCCC)CCCCCC)C(=O)NC(CCCCN)C(=O)NC(CCCCNC(=O)C1NC(=O)C2NC(=O)C(NC(=O)C3NC(=O)C(CC(N)=O)NC(=O)C(NC(=O)C(CC(C)C)NC)C(O)c4ccc(c(Cl)c4)Oc4cc3cc(c4OC3OC(CO)C(O)C(O)C3OC3CC(C)(N)C(O)C(C)O3)Oc3ccc(cc3Cl)C2O)c2ccc(O)c(c2)-c2c(O)cc(O)cc21)C(=O)NC (stereo not drawn) [MCC_000497] | xxx (xxx = 0.1-<1) | xxx (xxx = 0.1-<1) | xxx (xxx = 0.1-<1) |
| CCCCCCCCC(=O)N[C@@H](CCCNC(=N)N)C(=O)N[C@@H](CCCCNC(=O)[C@H]1NC(=O)[C@H]2NC(=O)[C@H](NC(=O)[C@@H]3NC(=O)[C@H](CC(N)=O)NC(=O)[C@H](NC(=O)[C@@H](CC(C)C)NC)[C@H](O)c4ccc(c(Cl)c4)Oc4cc3cc(c4O[C@@H]3O[C@H](CO)[C@@H](O)[C@H](O)[C@H]3O[C@H]3C[C@](C)(N)[C@H](O)[C@H](C)O3)Oc3ccc(cc3Cl)[C@H]2O)c2ccc(O)c(c2)-c2c(O)cc(O)cc21)C(=O)O [MCC_007385] | xxx (xxx = 0.1-<1) | xxx (xxx = 0.1-<1) | x (x = >4) |
| CCCCCCCOc1ccc(C(=O)NC(CCCCN)C(=O)NC(CCCCN)C(=O)NC(CCCCNC(=O)C2NC(=O)C3NC(=O)C(NC(=O)C4NC(=O)C(CC(N)=O)NC(=O)C(NC(=O)C(CC(C)C)NC)C(O)c5ccc(c(Cl)c5)Oc5cc4cc(c5OC4OC(CO)C(O)C(O)C4OC4CC(C)(N)C(O)C(C)O4)Oc4ccc(cc4Cl)C3O)c3ccc(O)c(c3)-c3c(O)cc(O)cc32)C(=O)NC)cc1 (stereo not drawn) [MCC_000503] | xxxxx (xxxxx = <0.01) | xxxxx (xxxxx = <0.01) | xx (xx = 1-4) |
| CCCCCCCCCCC(=O)N[C@@H](CCCCN)C(=O)NCCNC(=O)[C@H]1NC(=O)[C@H]2NC(=O)[C@H](NC(=O)[C@@H]3NC(=O)[C@H](CC(N)=O)NC(=O)[C@H](NC(=O)[C@@H](CC(C)C)NC)[C@H](O)c4ccc(c(Cl)c4)Oc4cc3cc(c4O[C@@H]3O[C@H](CO)[C@@H](O)[C@H](O)[C@H]3O[C@H]3C[C@](C)(N)[C@H](O)[C@H](C)O3)Oc3ccc(cc3Cl)[C@H]2O)c2ccc(O)c(c2)-c2c(O)cc(O)cc21 [MCC_005163] | xxxx (xxxx = 0.01-<0.1) | xxxxx (xxxxx = <0.01) | x (x = >4) |
| CNC(=O)[C@H](CCCCNC(=O)[C@H]1NC(=O)[C@H]2NC(=O)[C@H](NC(=O)[C@@H]3NC(=O)[C@H](CC(N)=O)NC(=O)[C@H](NC(=O)[C@@H](CC(C)C)NC)[C@H](O)c4ccc(c(Cl)c4)Oc4cc3cc(c4O[C@@H]3O[C@H](CO)[C@@H](O)[C@H](O)[C@H]3O)Oc3ccc(cc3Cl)[C@H]2O)c2ccc(O)c(c2)-c2c(O)cc(O)cc21)NC(=O)[C@H](CCCCN)NC(=O)[C@H](CCCCN)NC(=O)[C@H](CCCCNC(=O)CCCOc1ccccc1)NC(=O)CCCOc1ccccc1 [MCC_000604] | xx (xx = 1-4) | xx (xx = 1-4) | x (x = >4) |
| CNC(=O)C(CCCCNC(=O)C1NC(=O)C2NC(=O)C(NC(=O)C3NC(=O)C(CC(N)=O)NC(=O)C(NC(=O)C(CC(C)C)NC)C(O)c4ccc(c(Cl)c4)Oc4cc3cc(c4OC3OC(CO)C(O)C(O)C3OC3CC(C)(N)C(O)C(C)O3)Oc3ccc(cc3Cl)C2O)c2ccc(O)c(c2)-c2c(O)cc(O)cc21)NC(=O)C(CCCCN)NC(=O)C(CCCCNC(=O)c1ccc(Oc2ccc(Cl)cc2)cc1)NC(=O)c1ccc(Oc2ccc(Cl)cc2)cc1 (stereo not drawn) [MCC_000517] | xxxxxx | xxxx (xxxx = 0.01-<0.1) | xxx (xxx = 0.1-<1) |
| CCCCCCCCCCCCCC(=O)N[C@@H](CCCN)C(=O)N[C@@H](CCCN)C(=O)NCC(=O)NCCNC(=O)[C@H]1NC(=O)[C@H]2NC(=O)[C@H](NC(=O)[C@@H]3NC(=O)[C@H](CC(N)=O)NC(=O)[C@H](NC(=O)[C@@H](CC(C)C)NC)[C@H](O)c4ccc(c(Cl)c4)Oc4cc3cc(c4O[C@@H]3O[C@H](CO)[C@@H](O)[C@H](O)[C@H]3O[C@H]3C[C@](C)(N)[C@H](O)[C@H](C)O3)Oc3ccc(cc3Cl)[C@H]2O)c2ccc(O)c(c2)-c2c(O)cc(O)cc21 [MCC_000228] | xxxxx (xxxxx = <0.01) | xxxxx (xxxxx = <0.01) | xxxx (xxxx = 0.01-<0.1) |

Source: patent US10947271B2, “Antibacterial agents” (THE UNIVERSITY OF QUEENSLAND, priority 2014, dated 2021)
